Reference: article PMC9574927 (Journal of Medicinal Chemistry, 2022)

What was measured:
SARS-CoV-2 M^pro = SARS-CoV-2 M^pro (Severe acute respiratory syndrome coronavirus 2, UniProt P0DTD1); format: biochemical
in vivo = details: male, CD-1, mouse, po, 100 mg/kg
[1] = mouse

Compound	activity against Mpro in words (SARS-CoV-2 M^pro)	CL/F (in vivo) [mL/min/kg]	lung tissue Cmax ([1]; 25 mg/kg inhalative)	time of first appearance in plasma and urine post administration ([1]; 25 mg/kg inhalative) [min]	BALF concentrations at 5 h post administration (in words) ([1]; 100 mg/kg peroral, DOPS LUV formulation)	time up to which found in plasma and lung tissue ([1]; single inhalative dose 25 mg/kg)
CC(C)(C)OC(=O)Nc1cccn([C@H](CC2CC2)C(=O)N[C@@H](C[C@@H]2CCNC2=O)C(=O)C(=O)NCc2ccccc2)c1=O [Compound 13b-H, tert-Butyl (1-((R)-1-(((S)-4-(Benzylamino)-3,4-dioxo-1-((S)-2-oxopyrrolidin-3-yl)butan-2-yl)amino)-3-cyclopropyl-1-oxopropan-2-yl)-2-oxo-1,2-dihydropyridin-3-yl)carbamate]	nearly inactive					
CC(C)(C)OC(=O)Nc1cccn([C@@H](CC2CC2)C(=O)N[C@@H](C[C@@H]2CCNC2=O)C(=O)C(=O)NCc2ccccc2)c1=O [Compound 13b-K, tert-Butyl (1-((S)-1-(((S)-4-(Benzylamino)-3,4-dioxo-1-((S)-2-oxopyrrolidin-3-yl)butan-2-yl)amino)-3-cyclopropyl-1-oxopropan-2-yl)-2-oxo-1,2-dihydropyridin-3-yl)carbamate]		1160	261,748 ± 1294.4 ng/g	≤ 15	in the same range as after inhalative administration of 25 mg/kg	up to 24 h
